{"source": "paper PMC11018795", "about": "“The regulatory relationship between NAMPT and PD-L1 in cancer and identification of a dual-targeting inhibitor” (EMBO Molecular Medicine, 2024)", "key": {"H1299 cells": {"test_system": "H1299 cells", "assay": "MTT assay 48 h, H1299", "assay_type": "cell-based, human", "settings": "1299", "procedure": "(§1) Cells (5 × 10^3/well) were seeded into a 96-well plate and cultured at 37 °C in a 5% CO2 incubator. […] At the final time point, 10 μl MTT solution (5 mg/ml, Sigma, Burlington, MA, USA) was added to each well and incubated for an additional 4 h at 37 °C in a 5% CO2 incubator. Then,100 μl of DMSO was added to each well and mixed thoroughly. Optical density was measured at 492 nm using a microplate reader (Molecular Devices, San Jose, CA, USA)."}, "HCT-116 cells": {"test_system": "HCT-116 cells", "assay": "MTT assay 48 h, HCT-116", "assay_type": "cell-based, human", "procedure": "as §1"}, "A20 tumors": {"test_system": "A20 tumors", "assay": "A20 tumor-bearing Balb/c mice", "assay_type": "in vivo, mouse", "settings": "for tumor inhibition rate (TIR) / tumor growth inhibition (TGI) rate at endpoint: 12 days, Fig 6B"}, "LLC Vector cells": {"test_system": "LLC Vector cells", "assay": "Cell viability 72 h, LLC Vector (Fig 4C)", "assay_type": "cell-based, mouse", "procedure": "as §1, with “In vitro cell viability was determined using a Cell Counting Kit-8 (MCE) assay. Cells (5 × 10^3/well) were seeded in 96-well culture plates. After 24 h, they were incubated with various concentrations of the test compounds for 48–72 h at 37 °C in a 5% CO2 incubator. Next, 10% of the CCK-8 solution was added to each well, and the plates were incubated for an additional 4 h at 37 °C. The optical density of each well was measured at 450 nm using a multimode plate reader (Molecular Devices, San Jose, CA, USA). Cells” for “Cells”"}, "[1]": {"test_system": "LLC cells co-cultured with T cells", "assay": "T cell killing assay (colony formation), LLC sh Vector", "assay_type": "cell-based", "settings": "Mus musculus, 72 h, 100 nM, three days, read-out: inhibition rate of colony formation number", "procedure": "(§2) To acquire activated T cells, human peripheral blood mononuclear cells (PBMC; LTS1077, Yanjin Biological) were cultured in CTSTM AIIM VTM SFM (A3021002; Gibco) with ImmunoCult Human CD3/CD28/CD2 T-cell activator (25 μL/mL; […] Technologies, Cat#10970) for 48 h according to the manufacturer's protocol. The experiments were performed using mouse anti-CD3 antibody (1 μg/mL; Thermo Scientific, 16-0032-82) and anti-CD28 antibody(5 μg/mL; Thermo Scientific, 16-0281-82). […] Different proportions of cancer cells and activated T cells were utilized according to the purpose of each experiment. The T-cell proliferation assay was 1:3; the T-cell killing assay was 1:10; T cells and cell debris were removed by PBS washing, and the living cancer cells were then quantified by a spectrometer at OD (570 nm) followed by crystal violet staining. page 28: Fig 8: Effects of LZFPN-90 and NMN on tumor immune microenvironment. […] (C) T cells were co-cultured with LLC cells, and treated with LZFPN-90 (100 nM), and NMN (1 mM) to detect the cell proliferation by T cell killing assay. Data are presented as mean ± SEM; *P < 0.05, **P < 0.01, ***P < 0.001 compared with control. n.s., not significant. (1 picture or pasted object on this page, not shown here)"}, "A2780 cells": {"test_system": "A2780 cells", "assay": "Cell cycle analysis, A2780", "assay_type": "cell-based, human", "source_text": "Supplement 44321_2024_51_MOESM5_ESM.zip/Fig4-D.xlsx, sheet \"Sheet1\" | column: G0/G1; S; G2/M"}, "A549 cells": {"test_system": "A549 cells", "assay": "MTT assay 48 h, A549", "assay_type": "cell-based, human", "procedure": "as §1"}, "[2]": {"test_system": "LLC sh NAMPT cells co-cultured with T cells", "assay": "T cell killing assay (colony formation), LLC sh NAMPT", "assay_type": "cell-based", "settings": "Mus musculus, 72 h, 100 nM, three days, read-out: inhibition rate of colony formation number", "procedure": "as §2"}, "PC9 cells": {"test_system": "PC9 cells", "assay": "MTT assay 48 h, PC9", "assay_type": "cell-based, human", "procedure": "as §1"}, "PD-L1": {"biological_target": "T1, PD-L1 (Homo sapiens, UniProt Q9NZQ7)", "T1 construct": "endogenous in cells; host or cells: A2780", "T1 sequence (Q9NZQ7 19-290)": "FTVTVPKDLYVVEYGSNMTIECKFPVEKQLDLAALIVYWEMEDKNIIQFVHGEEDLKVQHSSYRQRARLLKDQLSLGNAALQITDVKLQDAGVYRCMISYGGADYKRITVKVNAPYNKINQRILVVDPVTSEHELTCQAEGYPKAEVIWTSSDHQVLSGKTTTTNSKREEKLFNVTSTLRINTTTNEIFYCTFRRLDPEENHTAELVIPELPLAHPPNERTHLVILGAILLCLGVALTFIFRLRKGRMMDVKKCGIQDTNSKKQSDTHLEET", "assay": "Cellular thermal shift assay (CETSA), PD-L1, A2780 cells", "assay_type": "binding", "settings": "for Relative band intensity (PD-L1): LZFPN-90 20 nM", "procedure": "The cells were resuspended in 1× PBS supplemented with protease inhibitors (Roche) and then divided into strip tubes for 30 min. The tubes were centrifuged at 15,000× g at 4 °C for 15 min. After centrifugation, the supernatant was divided into DMSO and LZFPN-90 (20 nM) groups, and incubated at room temperature for 30 min. According to standard procedures (38 °C, 42 °C, 46 °C, 50 °C, 54 °C, 58 °C, 62 °C, 66 °C), each temperature group was heated for 3 min, incubated at room temperature for 3 min. Then centrifuged at 20,000× g for 25 min, the supernatant was collected, 1× loading buffer was added, the mixture was heated in a metal bath at 95 °C for 10 min, and the amount of non-denatured protein per sample was quantified by western blotting."}, "[3]": {"test_system": "NAD+ content of A2780 cells", "assay": "NAD+ assay in A2780 cells", "assay_type": "cell-based, human", "settings": "for Relative NAD+: 0 nM = 100", "procedure": "NAD^+ assays were performed to quantify the total NAD^+ content. NAD^+ assay was performed using the NAD/NADH Assay Kit (ab65348; Abcam) according to the manufacturer’s recommended protocol."}}, "note": "“And” between values parts separate entries of the source, which are not always exact repeats. Equal values may be shown once.", "data": [{"smiles": "CCN(CC)CCCOc1cccc(-c2cccc3c2CCN3C(=O)c2ncc(CNC(=NC#N)Nc3ccncc3)s2)c1", "note": "[LZFPN-90]", "values": [{"measurement": "Relative inhibition (敏感性)", "setting": "H1299 cells", "result": 0.02}, {"measurement": "Relative inhibition (敏感性)", "setting": "HCT-116 cells", "result": 0.61}, {"measurement": "tumor inhibition rate (TIR) / tumor growth inhibition (TGI) rate at endpoint", "setting": "A20 tumors; 20 mg/kg i.p.", "result": 73.76, "unit": "%"}, {"measurement": "tumor inhibition rate (TIR) / tumor growth inhibition (TGI) rate at endpoint", "setting": "A20 tumors; 40 mg/kg i.p.", "result": 83.11, "unit": "%"}, {"measurement": "effect on mouse organ or body weight", "setting": "A20 tumors; A20 model, FK866 20 mg/kg, LZFPN-90 20 and 40 mg/kg i.p.", "result": "no obvious effect on mouse organ or body weight"}, {"measurement": "TIR (relative tumor weight)", "setting": "A20 tumors; Balb/c mice, 20 mg/kg i.p., Fig 6E", "result": 73.8, "unit": "%"}, {"measurement": "tumor inhibition rate (TIR)", "setting": "A20 tumors; repeat experiment, 40 mg/kg i.p.", "result": 82.70, "unit": "%"}, {"measurement": "effect on mouse organ index or body weight", "setting": "A20 tumors; repeat experiment, LZFPN-90 40 mg/kg, FK866 20 mg/kg + CQ-85 20 mg/kg i.p.", "result": "no obvious effect on mouse organ index or body weight"}, {"measurement": "effect on body weight and organ index", "setting": "A20 tumors; two animal models (A20 and LLC OE NAMPT/PD-L1)", "result": "did not affect the body weight and organ index"}, {"measurement": "Relative viability", "setting": "LLC Vector cells; LZ90 0.25 (nM), 0 = 100", "result": "89.7901 and 87.9705 and 96.555"}, {"measurement": "Relative viability", "setting": "LLC Vector cells; LZ90 1", "result": "87.3413 and 95.1235 and 101.277"}, {"measurement": "Relative viability", "setting": "LLC Vector cells; LZ90 4", "result": "85.618 and 92.9893 and 92.8571"}, {"measurement": "Relative viability", "setting": "LLC Vector cells; LZ90 16", "result": "83.9984 and 83.5338 and 75.7769"}, {"measurement": "Relative viability", "setting": "LLC Vector cells; LZ90 64", "result": "79.4506 and 87.9576 and 68.4293"}, {"measurement": "Relative viability", "setting": "LLC Vector cells; LZ90 256", "result": "70.355 and 68.0766 and 71.9586"}, {"measurement": "inhibition at 0.1 µM", "setting": "[1]", "result": 48.2, "unit": "%"}, {"measurement": "Cell cycle G0/G1", "setting": "A2780 cells; LZ90 20", "result": "36.54 and 37.05 and 37.41"}, {"measurement": "Cell cycle G2/M", "setting": "A2780 cells; LZ90 20", "result": "35.48 and 38.97 and 35.02"}, {"measurement": "Cell cycle S", "setting": "A2780 cells; LZ90 20", "result": "24.02 and 27.3 and 26.67"}, {"measurement": "Cell cycle G0/G1", "setting": "A2780 cells; LZ90 40", "result": "46.76 and 45.07"}, {"measurement": "Cell cycle G2/M", "setting": "A2780 cells; LZ90 40", "result": "35.5 and 29.25 and 33.56"}, {"measurement": "Cell cycle S", "setting": "A2780 cells; LZ90 40", "result": "23.4 and 20.94 and 19.12"}, {"measurement": "Cell cycle G0/G1", "setting": "A2780 cells; LZ90 60", "result": "32.3 and 44.46"}, {"measurement": "Cell cycle G2/M", "setting": "A2780 cells; LZ90 60", "result": "27.02 and 27.05"}, {"measurement": "Cell cycle S", "setting": "A2780 cells; LZ90 60", "result": "39.91 and 27.43"}, {"measurement": "Relative inhibition (敏感性)", "setting": "A549 cells", "result": 0.24}, {"measurement": "inhibition at 0.1 µM", "setting": "[2]", "result": 26.8, "unit": "%"}, {"measurement": "Relative inhibition (敏感性)", "setting": "PC9 cells", "result": 0.29}, {"measurement": "thermal stability of PD-L1", "setting": "PD-L1; LZFPN-90 20 nM vs blank group", "result": "the stability of NAMPT and PD-L1 increased"}, {"measurement": "Relative band intensity (PD-L1)", "setting": "PD-L1; 38 ℃", "result": "0.8 and 0.83"}, {"measurement": "Relative band intensity (PD-L1)", "setting": "PD-L1; 42 ℃", "result": "0.79 and 0.8"}, {"measurement": "Relative band intensity (PD-L1)", "setting": "PD-L1; 46 ℃", "result": "0.86 and 0.82"}, {"measurement": "Relative band intensity (PD-L1)", "setting": "PD-L1; 50 ℃", "result": "0.7 and 0.76"}, {"measurement": "Relative band intensity (PD-L1)", "setting": "PD-L1; 54 ℃", "result": "0.56 and 0.61"}, {"measurement": "Relative band intensity (PD-L1)", "setting": "PD-L1; 58 ℃", "result": "1 and 1.07"}, {"measurement": "Relative band intensity (PD-L1)", "setting": "PD-L1; 62 ℃", "result": "0.96 and 0.92"}, {"measurement": "Relative band intensity (PD-L1)", "setting": "PD-L1; 66 ℃", "result": "0.36 and 0.31"}, {"measurement": "effect on NAD+ content", "setting": "[3]; A2780 cells", "result": "concentration-dependent reduction in the NAD^+ content"}, {"measurement": "Relative NAD+", "setting": "[3]; LZFPN-90 1.25 nM", "result": "35.1891 and 32.3761"}, {"measurement": "Relative NAD+", "setting": "[3]; LZFPN-90 2.5 nM", "result": "12.5247 and 11.2894"}, {"measurement": "Relative NAD+", "setting": "[3]; LZFPN-90 5 nM", "result": "8.877 and 6.867"}, {"measurement": "Relative NAD+", "setting": "[3]; LZFPN-90 10 nM", "result": "2.626 and 2.637"}]}]}
